In patent US20230348424A1, “HETEROCYCLIC COMPOUNDS AND METHODS OF USE” (Schrödinger, Inc., priority 2022, published 2023) one finds IC50 data, which are given here for 16 compounds.

The test addresses SOS1:KRAS (G12C) interaction (Homo sapiens (Human), UniProt Q07889). In words: SOS1 KRas(G12C) FRET Assay. Format: binding. Conditions: 0.5 nM His10-SOS1 (res. 564-1049), 2.5 nM GST-KRAS G12C (res. 1-169), 2 hrs at RT. The procedure, abridged: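 GST-KRAS G12C (res. 1-169) at 2.5 nM and His10-SOS1 (res. 564-1049) at 0.5 nM, final, in PBS with 0.1% BSA, 5 mM MgCl2, 100 mM KF, 5 mM DTT and 0.5% DMSO. After 2 h at RT, FRET read at 665/615 nm and normalized to DMSO and no-SOS1 controls. IC50 by non-linear regression.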

Chain of SOS1:KRAS (G12C) interaction (Q07889 564-1049, stated change not applied): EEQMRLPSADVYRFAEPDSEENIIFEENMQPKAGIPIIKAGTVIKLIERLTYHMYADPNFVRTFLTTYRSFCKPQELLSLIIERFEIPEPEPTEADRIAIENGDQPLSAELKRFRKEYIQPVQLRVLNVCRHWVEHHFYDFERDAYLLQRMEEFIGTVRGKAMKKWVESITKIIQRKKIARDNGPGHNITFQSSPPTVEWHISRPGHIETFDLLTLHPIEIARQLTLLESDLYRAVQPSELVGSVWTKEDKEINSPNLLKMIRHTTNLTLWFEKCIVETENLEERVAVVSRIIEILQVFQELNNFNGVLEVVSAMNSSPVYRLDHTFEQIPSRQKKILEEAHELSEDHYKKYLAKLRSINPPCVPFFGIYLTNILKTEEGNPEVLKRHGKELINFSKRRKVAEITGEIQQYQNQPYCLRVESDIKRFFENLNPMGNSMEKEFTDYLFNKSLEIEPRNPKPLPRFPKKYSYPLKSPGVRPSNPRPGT

For the compound `C[C@@H](NC(=O)c1cn(C2(C(F)(F)F)CCC2)c(=O)cc1NC1CCN(C)CC1)c1cccc(C(F)F)c1F` [Example 225, (R)-N-(1-(3-(difluoromethyl)-2-fluorophenyl)ethyl)-4-((1-methylpiperidin-4-yl)amino)-6-oxo-1-(1-(trifluoromethyl)cyclobutyl)-1,6-dihydropyridine-3-carboxamide], the IC50 (commonly the point on the concentration scale where inhibition reaches its midpoint) stood at 0.0139 µM. The result for `C[C@@H](NC(=O)c1cn(C2(C(F)F)CC2)c(=O)cc1NC[C@@H]1[C@H]2CN(C)C[C@@H]12)c1cccc(C(F)F)c1F` [Example 226, N-((R)-1-(3-(difluoromethyl)-2-fluorophenyl)ethyl)-1-(1-(difluoromethyl)cyclopropyl)-4-((((1R,5S,6s)-3-methyl-3-azabicyclo[3.1.0]hexan-6-yl)methyl)amino)-6-oxo-1,6-dihydropyridine-3-carboxamide] reads 0.0353 µM; that for `C[C@@H](NC(=O)c1cn(C2(C(F)F)CC2)c(=O)cc1N[C@]12C[C@H]1CN(C)C2)c1cccc(C(F)F)c1F` [Example 227, N-((R)-1-(3-(difluoromethyl)-2-fluorophenyl)ethyl)-1-(1-(difluoromethyl)cyclopropyl)-4-(((1R,5S)-3-methyl-3-azabicyclo[3.1.0]hexan-1-yl)amino)-6-oxo-1,6-dihydropyridine-3-carboxamide], 0.0619 µM; that for `C[C@@H](NC(=O)c1cn(C2(C(F)F)CC2)c(=O)cc1N[C@@]12C[C@@H]1CN(C)C2)c1cccc(C(F)F)c1F` [Example 228, N-((R)-1-(3-(difluoromethyl)-2-fluorophenyl)ethyl)-1-(1-(difluoromethyl)cyclopropyl)-4-(((1S,5R)-3-methyl-3-azabicyclo[3.1.0]hexan-1-yl)amino)-6-oxo-1,6-dihydropyridine-3-carboxamide], 0.0643 µM. `C[C@@H](NC(=O)c1cn(C2(C(F)F)CC2)c(=O)cc1N[C@H]1C[C@@H](N(C)C)C1)c1cccc(C(F)F)c1F` [Example 229, N-((R)-1-(3-(difluoromethyl)-2-fluorophenyl)ethyl)-1-(1-(difluoromethyl)cyclopropyl)-4-(((1s,3S)-3-(dimethylamino)cyclobutyl)amino)-6-oxo-1,6-dihydropyridine-3-carboxamide] registered an IC50 of 0.0227 µM. In turn, `C[C@@H](NC(=O)c1cn(C2(C(C)(F)F)CC2)c(=O)cc1NC1CCN(C)CC1)c1cccc(C(F)F)c1F` [Example 230, (R)-1-(1-(1,1-difluoroethyl)cyclopropyl)-N-(1-(3-(difluoromethyl)-2-fluorophenyl)ethyl)-4-((1-methylpiperidin-4-yl)amino)-6-oxo-1,6-dihydropyridine-3-carboxamide] returned an IC50 of 0.0219 µM. As to `C[C@@H](NC(=O)c1cn(C2CC3(C2)CC(F)(F)C3)c(=O)cc1N[C@H]1[C@@H]2CN(C)C[C@@H]21)c1cccc(C(F)F)c1F` [Example 231, N-((R)-1-(3-(difluoromethyl)-2-fluorophenyl)ethyl)-1-(6,6-difluorospiro[3.3]heptan-2-yl)-4-(((1R,5S,6s)-3-methyl-3-azabicyclo[3.1.0]hexan-6-yl)amino)-6-oxo-1,6-dihydropyridine-3-carboxamide], half-maximal inhibition (IC50) was put at 0.0102 µM. The value for `C[C@@H](NC(=O)c1cn([C@@]2(C(F)(F)F)CCOC2)c(=O)cc1NC1CCN(C)CC1)c1cccc(C(F)F)c1F` [Example 232, N-((R)-1-(3-(difluoromethyl)-2-fluorophenyl)ethyl)-4-((1-methylpiperidin-4-yl)amino)-6-oxo-1-((S)-3-(trifluoromethyl)tetrahydrofuran-3-yl)-1,6-dihydropyridine-3-carboxamide] was 0.0919 µM; that for `C[C@@H](NC(=O)c1cn([C@]2(C(F)(F)F)CCOC2)c(=O)cc1NC1CCN(C)CC1)c1cccc(C(F)F)c1F` [Example 233, N-((R)-1-(3-(difluoromethyl)-2-fluorophenyl)ethyl)-4-((1-methylpiperidin-4-yl)amino)-6-oxo-1-((R)-3-(trifluoromethyl)tetrahydrofuran-3-yl)-1,6-dihydropyridine-3-carboxamide] was 0.0048 µM. The value for `C[C@@H](NC(=O)c1cn(C2(C(F)F)CC2)c(=O)cc1NC1CCN(C)C2(CC2)C1)c1cccc(C(F)F)c1F` (stereo partly drawn) [Example 240, N-((R)-1-(3-(difluoromethyl)-2-fluorophenyl)ethyl)-1-(1-(difluoromethyl)cyclopropyl)-4-((4-methyl-4-azaspiro[2.5]octan-7-yl)amino)-6-oxo-1,6-dihydropyridine-3-carboxamide] was 0.0135 µM. Compound `C[C@@H](NC(=O)c1cn(C2(C3CCC3)CC2)c(=O)cc1NC1CCN(C)CC1)c1cccc(C(F)F)c1F` [Example 241, (R)-1-(1-cyclobutylcyclopropyl)-N-(1-(3-(difluoromethyl)-2-fluorophenyl)ethyl)-4-((1-methylpiperidin-4-yl)amino)-6-oxo-1,6-dihydropyridine-3-carboxamide] had an IC50 of 0.029 µM. This IC50 lies about 2.1-fold higher than the previous one. The result for `C[C@@H](NC(=O)c1cn(C2CC23CCC(F)(F)CC3)c(=O)cc1N[C@H]1[C@@H]2CN(C)C[C@@H]21)c1cccc(C(F)F)c1F` (stereo partly drawn) [Example 242, N-((R)-1-(3-(difluoromethyl)-2-fluorophenyl)ethyl)-1-(6,6-difluorospiro[2.5]octan-1-yl)-4-(((1R,5S,6s)-3-methyl-3-azabicyclo[3.1.0]hexan-6-yl)amino)-6-oxo-1,6-dihydropyridine-3-carboxamide] reads 0.0116 µM; that for `C[C@@H](NC(=O)c1cn([C@@H]2CCOC[C@H]2F)c(=O)cc1N[C@H]1[C@@H]2C[C@H]1CN(C)C2)c1cccc(C(F)F)c1F` [Example 243, N-((R)-1-(3-(difluoromethyl)-2-fluorophenyl)ethyl)-1-((3S,4R)-3-fluorotetrahydro-2H-pyran-4-yl)-4-(((1R,5Sx,6r)-3-methyl-3-azabicyclo[3.1.1]heptan-6-yl)amino)-6-oxo-1,6-dihydropyridine-3-carboxamide], 0.0063 µM. The result for `C[C@@H](NC(=O)c1cn([C@@H]2CCOC[C@H]2F)c(=O)cc1N[C@@H]1[C@@H]2C[C@H]1CN(C)C2)c1cccc(C(F)F)c1F` [Example 244, N-((R)-1-(3-(difluoromethyl)-2-fluorophenyl)ethyl)-1-((3S,4R)-3-fluorotetrahydro-2H-pyran-4-yl)-4-(((1R5S,6s)-3-methyl-3-azabicyclo[3.1.1]heptan-6-yl)amino)-6-oxo-1,6-dihydropyridine-3-carboxamide] reads 0.0181 µM. The value for `COC12CC(CNc3cc(=O)n(C45CC(C4)C5)cc3C(=O)N[C@H](C)c3cccc(C(F)F)c3F)(C1)C2` [Example 262, (R)-1-(bicyclo[1.1.1]pentan-1-yl)-N-(1-(3-(difluoromethyl)-2-fluorophenyl)ethyl)-4-(((3-methoxybicyclo[1.1.1]pentan-1-yl)methyl)amino)-6-oxo-1,6-dihydropyridine-3-carboxamide] was 0.116 µM. For the compound `C[C@@H](NC(=O)c1cn(C23COC(C(F)F)(C2)C3)c(=O)cc1NC1[C@H]2CN(C)C[C@@H]12)c1cccc(C(F)F)c1F` (stereo partly drawn) [Example 263, N-((R)-1-(3-(difluoromethyl)-2-fluorophenyl)ethyl)-1-(1-(difluoromethyl)-2-oxabicyclo[2.1.1]hexan-4-yl)-4-(((1R,5S,6s)-3-methyl-3-azabicyclo[3.1.0]hexan-6-yl)amino)-6-oxo-1,6-dihydropyridine-3-carboxamide], half-maximal inhibition (IC50) was put at 0.0149 µM.
